From the supplement of paper PMC7600603

How the values were obtained:
[1] = tested on: DLD1 NRF2-WT; assay: drug sensitivity score (DSS) viability (DSS score); higher = more sensitive; extreme values may be limits of the assay; conditions: 72 h; CellTiter-Glo viability
Outline: (§1)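 Isogenic DLD1 colorectal cancer cells, either NRF2 wild-type or CRISPR gain-of-function, were grown in DMEM with 10% FBS. They were exposed in 384-well plates to library compounds at 5 concentrations spanning a 10,000-fold range. After 72 h, viability was read by CellTiter-Glo on a Pherastar FS reader and normalised to vehicle wells and 100-μM positive-control wells. EC50 and drug sensitivity score (a normalised area under the curve) came from four-parameter logistic dose-response fits.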

[2] = tested on: DLD1 NRF2-GOF; assay: drug sensitivity score (DSS) cytotoxicity (DSS score); higher = more toxic; extreme values may be limits of the assay; conditions: 72 h; CellTox Green cytotoxicity
Outline: (§2)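 Isogenic DLD1 colorectal cancer cells differing in NRF2 status, one line edited by CRISPR, were cultured in DMEM with 10% FBS and treated in 384-well plates with library compounds at 5 concentrations spanning a 10,000-fold range. Plates were read after 72 h with CellTox Green on a Pherastar FS reader, and signals were normalised to vehicle wells and 100-μM positive-control wells. Cytotoxicity was summarised as TC50 and as a drug sensitivity score, a normalised area under the curve, both from logistic dose-response fits.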

[3] = tested on: DLD1 NRF2-WT; assay: as above; conditions: 72 h; CellTox Green cytotoxicity
Outline: as §2

[4] = tested on: DLD1 NRF2-GOF; assay: TC50 cytotoxicity; higher = less toxic; conditions: 72 h; CellTox Green cytotoxicity
Outline: as §2

[5] = tested on: DLD1 NRF2-WT; assay: TC50 cytotoxicity; higher = less toxic; conditions: 72 h; CellTox Green cytotoxicity
Outline: as §2

[6] = tested on: DLD1 NRF2-WT; conditions: 72 h; CellTiter-Glo viability
Outline: as §1

Row | Compound | drug sensitivity score [1] | drug sensitivity score [2] | drug sensitivity score [3] | TC50 cytotoxicity [4] | TC50 cytotoxicity [5] | EC50 viability [6]
1 | COc1ccc(-c2nc(N3CCOCC3)c3sc(CN(C)c4ncc(C(=O)NO)cn4)cc3n2)cn1 [CUDC-907] | 29.8 | 6.9 | 14.6 | 0.509 µM | 0.105 µM | 0.0334 µM
2 | Cn1c(Nc2ccc(C(F)(F)F)cc2)nc2cc(Oc3ccnc(-c4ncc(C(F)(F)F)[nH]4)c3)ccc21 [NVP-RAF265] | 3.2 |  |  |  |  | 0.191 µM
3 | CC(C)n1cnc2c(NCCc3ccc(O)cc3)nc(-c3csc4ccccc34)nc21 [StemRegenin 1] | 3.9 |  |  |  |  | 0.855 µM
4 | COc1cc2c(cc1OC(C)C)[C@H](c1ccc(Cl)cc1)N(c1ccc(N(C)C[C@H]3CC[C@H](N4CCN(C)C(=O)C4)CC3)cc1)C(=O)C2 [NVP-CGM097] | 3.4 | 0 | 0 | > 25 µM | > 25 µM | 2.38 µM
5 | C=C1C[C@@H]2CC[C@@]34C[C@H]5O[C@H]6[C@@H](O3)[C@H]3O[C@H](CC[C@@H]3O[C@H]6[C@H]5O4)CC(=O)C[C@@H]3[C@@H](OC)[C@@H](C[C@H](O)CN)O[C@H]3C[C@H]3O[C@@H](CC[C@@H]1O2)C[C@@H](C)C3=C [Eribulin] | 22.6 | 4.4 | 3.3 | > 1 µM | > 1 µM | 0.0051 µM
6 | COc1cc(OC2CCN(C)CC2)ccc1Nc1ncc2c(n1)n(C1CCCC1)c(=O)n2C [AZ 3146] | 8 | 1.6 | 2.5 | > 10 µM | 1.58 µM | 1.25 µM
7 | CN1CCC(CNc2ccc3ncc(-c4cccc(OC(F)(F)F)c4)n3n2)CC1 [SGI-1776] | 5 | 3.1 | 4.5 | 3.14 µM | 2.68 µM | 3.47 µM
8 | CC[C@H](CO)Nc1nc(NCc2ccccc2)c2ncn(C(C)C)c2n1 [Seliciclib] | 1.1 | 0 | 0 | > 10 µM | > 10 µM | 4.17 µM
9 | Nc1ccccc1NC(=O)c1ccc(CNc2nccc(-c3cccnc3)n2)cc1 [Mocetinostat] | 4 | 0 | 1.6 | > 10 µM | > 10 µM | 3.29 µM
10 | CC[C@H](NC(=O)[C@H](C)NC)C(=O)N1C[C@@H](O)C[C@H]1Cc1c(-c2[nH]c3cc(F)ccc3c2C[C@@H]2C[C@H](O)CN2C(=O)[C@H](CC)NC(=O)[C@H](C)NC)[nH]c2cc(F)ccc12 [Birinapant] | 0.1 | 0 | 0 | > 1 µM | > 1 µM | > 1 µM
11 | CC[C@@H]1C(=O)N(C)c2cnc(Nc3ccc(C(=O)NC4CCN(C)CC4)cc3OC)nc2N1C1CCCC1 [BI 2536] | 21.8 | 2.3 | 3.1 |  | 0.188 µM | 0.0052 µM
12 | Cc1cc(OCc2nnc(SC3CCCC3)n2-c2cccnc2)ccc1-c1ccc(S(C)(=O)=O)cc1 [NMS-873] | 5.5 |  |  |  |  | 0.273 µM
13 | CC(C)N(CCCNC(=O)Nc1ccc(C(C)(C)C)cc1)C[C@H]1O[C@@H](n2cc(Br)c3c(N)ncnc32)[C@H](O)[C@@H]1O [SGC0946] | 0.9 | 0 | 0 | > 10 µM | > 10 µM | 
14 | C[C@@H](Oc1cc(-c2cnn(C3CCNCC3)c2)cnc1N)c1c(Cl)ccc(F)c1Cl [Crizotinib] | 0 |  |  |  |  | > 1 µM
15 | N#Cc1ccc(COC[C@H]2O[C@@H](n3c(NCc4ccc(Cl)c(Cl)c4)nc4c(N)ncnc43)[C@H](O)[C@@H]2O)cc1 | 3.2 | 0 | 0 | > 10 µM | > 10 µM | 
16 | COc1ccc(Cn2ccc3ccc(C(=O)NO)cc32)cc1 |  | 0 | 0 | > 10 µM | > 10 µM | 
17 | N#Cc1ccc2[nH]c(O)c(-c3ccc(CN4CCOCC4)cn3)c2c1 [AZD-1080] |  | 0 | 0 | > 10 µM | > 10 µM | 
18 | Nc1nc(NC2CC2)cc(-c2cccc(Cl)c2Cl)n1 [TH588] |  | 0 | 0 | > 25 µM | > 25 µM | 
19 | CC(C)c1c(C(=O)Nc2ccccc2)c(-c2ccccc2)c(-c2ccc(F)cc2)n1CC[C@@H](O)C[C@@H](O)CC(=O)O [Atorvastatin] | 2.5 |  |  |  |  | 3.75 µM
20 | Cc1sc2c(c1C)C(c1ccc(Cl)cc1)=N[C@@H](CC(=O)Nc1ccc(O)cc1)c1nnc(C)n1-2 [Birabresib] |  | 0 | 0 | > 10 µM | > 10 µM | 
21 | Nc1nc(OCc2cc(Br)cs2)c2[nH]cnc2n1 [Lomeguatrib] |  | 0 | 0 | > 10 µM | > 10 µM | 
22 | N#CC1(c2ccc(NC(=O)c3cccnc3NCc3ccncc3)cc2)CCCC1 [Apatinib] |  | 0 | 0 | > 10 µM | > 10 µM | 
23 | Cn1cc(-c2ccc(F)c(C(F)(F)F)c2)nc1C1CCN(c2ncnc3[nH]ncc23)CC1 |  | 0 | 0 | > 10 µM | > 10 µM | 
24 | CN(C)CCCOc1ccc(-c2ccc3ncc4c(c3c2)n(C2CCOCC2)c(=O)n4C)cn1 [AZD0156] |  | 0 | 0 | > 1 µM | > 1 µM | 
25 | Nc1nc(Nc2ccc3c(c2)CC[C@@H](N2CCCC2)CC3)nn1-c1cc2c(nn1)-c1ccccc1CCC2 [BGB324] |  | 0 | 0 | > 10 µM | > 10 µM | 
26 | O=C(c1ccc(F)c(F)c1Nc1ccc(I)cc1F)N1CC(O)([C@@H]2CCCCN2)C1 [Cobimetinib] | 3 |  |  |  |  | 0.207 µM
27 | CC(C)(C)c1cc(NC(=O)Nc2ccc(-c3cn4c(n3)sc3cc(OCCN5CCOCC5)ccc34)cc2)no1 [Quizartinib] |  | 0 | 0 | > 1 µM | > 1 µM | 

Row | Compound | drug sensitivity score [1] | drug sensitivity score [2] | drug sensitivity score [3] | TC50 cytotoxicity [4] | TC50 cytotoxicity [5] | EC50 viability [6]
28 | CC(C)(O)CNc1nc(Nc2ccnc(C(F)(F)F)c2)nc(-c2cccc(C(F)(F)F)n2)n1 [Enasidenib] |  | 0 | 0 | > 10 µM | > 10 µM | 
29 | CC[C@]1(O)C[C@H]2CN(CCc3c([nH]c4ccccc34)[C@@](C(=O)OC)(c3cc4c(cc3OC)N(C)[C@H]3[C@@](O)(C(=O)OC)[C@H](OC(C)=O)[C@]5(CC)C=CCN6CC[C@]43[C@@H]65)C2)C1 [Vinblastine] | 22.5 | 3.4 | 4.1 | > 1 µM |  | 0.0052 µM
30 | O=C(O)C(=O)O.[NH-][C@@H]1CCCC[C@H]1[NH-].[Pt+2] [Oxaliplatin] | 3 |  |  |  |  | 25.3 µM
31 | CCN(CC)CCNC(=O)c1c(C)[nH]c(/C=C2\C(=O)Nc3ccc(-c4csc(-c5ccccc5)n4)cc32)c1C [Amcasertib] |  | 0 | 0 | > 10 µM | > 10 µM | 
32 | NC(=S)N/N=C/c1ncccc1N [Triapine] |  | 0 | 0 | > 10 µM | > 10 µM | 
33 | CCNCCS(=O)(=O)NC[C@@]1(c2ccccc2)SC(NC(=O)C(C)(C)C)=NN1C(=O)C(C)(C)C [Litronesib] |  | 1.6 | 0 | > 1 µM | > 1 µM | 
34 | CO[C@H]1C[C@@H]2CC[C@@H](C)[C@@](O)(O2)C(=O)C(=O)N2CCCC[C@H]2C(=O)O[C@H]([C@H](C)C[C@@H]2CC[C@@H](O)[C@H](OC)C2)CC(=O)[C@H](C)/C=C(\C)[C@@H](O)[C@@H](OC)C(=O)[C@H](C)C[C@H](C)/C=C/C=C/C=C/1C [Sirolimus] | 3.1 |  |  |  |  | 
35 | COc1cc2ncnc(Nc3cccc(Cl)c3F)c2cc1OC(=O)N1CCN(C)C[C@H]1C [AZD3759] |  | 0 | 0 | > 1 µM | > 1 µM | 
36 | CCC1(c2ccc(N)cc2)CCC(=O)NC1=O (stereo not given) [Aminoglutethimide] |  | 0 | 0 | > 10 µM | > 10 µM | 
37 | C[C@@H]1CCN(C(=O)CC#N)C[C@@H]1N(C)c1ncnc2[nH]ccc12 [Tofacitinib] |  | 0 | 0 | > 5 µM | > 5 µM | 
38 | NC(=O)c1cccc(-c2cccc(OC(=O)NC3CCCCC3)c2)c1 [URB597] |  | 0 | 0 | > 1 µM | > 1 µM | 
39 | NC(=O)c1cccc2cn(-c3ccc(C4CCCNC4)cc3)nc12 (stereo not given) [Niraparib] |  | 0 | 0 | > 10 µM | > 10 µM | 
40 | O=C(/C=C\n1cnc(-c2cc(C(F)(F)F)cc(C(F)(F)F)c2)n1)NNc1ccccn1 [Verdinexor] |  | 0 | 0 | > 1 µM | > 1 µM | 
41 | Cn1cc(CNCC2CCN(c3ncc(C(=O)NO)cn3)CC2)c2ccccc21 [Quisinostat] |  | 0 | 5.1 | > 1 µM | 0.135 µM | 
42 | Oc1nc(-c2ccc(C(F)(F)F)cc2)nc2c1CSCC2 [XAV-939] |  | 0 | 0 | > 10 µM | > 10 µM | 
43 | CCN(CC)Cc1ccc2cc(COC(=O)Nc3ccc(C(=O)NO)cc3)ccc2c1 [Givinostat] |  | 0 | 1.6 | > 1 µM | 0.344 µM | 
44 | CCCOc1ccn2c(C(C)=O)cc(-c3ccccc3S(C)(=O)=O)c2c1 [GSK2801] |  | 0 | 0 | > 10 µM | > 10 µM | 
45 | CN(C)c1cc2c(cc1Sc1nc3c(N)nccc3n1CCNCC(C)(C)C)OCO2 [CUDC-305] |  | 0 | 0 | > 10 µM | > 10 µM | 
46 | Cc1ccc(-c2cc(C(F)(F)F)nn2-c2ccc(S(N)(=O)=O)cc2)cc1 [Celecoxib] |  | 0 | 0 | > 10 µM | > 10 µM | 
47 | Cc1cc(Nc2nc(N[C@@H](C)c3ncc(F)cn3)ncc2Cl)[nH]n1 [AZD1480] |  | 0 | 0 | > 1 µM | > 1 µM | 
48 | O=C(O)CCCCC(CCSCc1ccccc1)SCc1ccccc1 (stereo not given) [CPI-613] |  | 0 | 0 | > 10 µM | > 10 µM | 
49 | CC(O)(CS(=O)(=O)c1ccc(F)cc1)C(=O)Nc1ccc(C#N)c(C(F)(F)F)c1 (stereo not given) [Bicalutamide] |  | 0 | 0 | > 10 µM | > 10 µM | 
50 | COC(=O)c1ccc2c(c1)[nH]c1ncnc(NCCCN3CCCCC3)c12 [UM729] |  | 0 | 0 | > 10 µM | > 10 µM | 
51 | C[C@]12CC[C@H](O)CC1=CC[C@@H]1[C@@H]2CC[C@]2(C)C(c3cccnc3)=CC[C@@H]12 [Abiraterone] |  | 0 | 0 | > 5 µM | > 5 µM | 
52 | CNC(=O)[C@@H](NC(=O)[C@H](CC(C)C)[C@H](O)C(=O)NO)C(C)(C)C [Marimastat] |  | 0 | 0 | > 10 µM | > 10 µM | 
53 | CC[C@@H](C(=O)[C@@H](C)[C@@H](O)[C@H](C)[C@@H]1O[C@@H]([C@@H](CC)C(=O)O)CC[C@@H]1C)[C@H]1O[C@]2(C=C[C@@H](O)[C@]3(CC[C@@](C)([C@H]4CC[C@](O)(CC)[C@H](C)O4)O3)O2)[C@H](C)C[C@@H]1C [Salinomycin] |  | 0 | 0.2 | > 50 µM | > 50 µM | 
